Test results as given in ChEMBL document CHEMBL1201862, “PubChem BioAssay data set” (2004).
Calls of active or inactive are those of the source. Rule as the data show it, for most assays here: actives have a measured EC50 and inactives only a lower limit.

What was measured:
[1] = target: T1, Zinc finger protein mex-5 (Caenorhabditis elegans, UniProt Q9XUB2); test: potency of MEX-5 RNA-binding blockers – biochemical, C. elegans, fluorescence polarization, dose response (AID 1960)
T1 sequence (Q9XUB2 whole entry): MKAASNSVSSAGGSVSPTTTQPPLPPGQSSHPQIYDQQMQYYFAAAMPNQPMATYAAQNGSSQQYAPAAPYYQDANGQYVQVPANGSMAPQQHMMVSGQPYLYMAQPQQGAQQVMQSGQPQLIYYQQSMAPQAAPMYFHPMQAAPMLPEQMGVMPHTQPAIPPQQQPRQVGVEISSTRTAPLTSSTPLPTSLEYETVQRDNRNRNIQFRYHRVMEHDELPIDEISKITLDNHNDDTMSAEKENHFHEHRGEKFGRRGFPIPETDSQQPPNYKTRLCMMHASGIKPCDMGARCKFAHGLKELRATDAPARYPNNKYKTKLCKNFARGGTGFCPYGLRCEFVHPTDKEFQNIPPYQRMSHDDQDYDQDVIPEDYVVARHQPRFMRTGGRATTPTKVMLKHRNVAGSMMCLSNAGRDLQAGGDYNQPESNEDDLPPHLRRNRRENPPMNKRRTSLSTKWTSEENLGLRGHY

[2] = target: T2, RNA-binding protein pos-1 (Caenorhabditis elegans, UniProt G5EF15); test: disruptors of C. elegans POS-1 RNA interaction – biochemical, fluorescence polarization, dose response (AID 1964);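 also: purified POS-1 fused to maltose binding protein made in E. coli; potency of compounds blocking POS-1 binding to fluorescent RNA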
T2 sequence (G5EF15 whole entry): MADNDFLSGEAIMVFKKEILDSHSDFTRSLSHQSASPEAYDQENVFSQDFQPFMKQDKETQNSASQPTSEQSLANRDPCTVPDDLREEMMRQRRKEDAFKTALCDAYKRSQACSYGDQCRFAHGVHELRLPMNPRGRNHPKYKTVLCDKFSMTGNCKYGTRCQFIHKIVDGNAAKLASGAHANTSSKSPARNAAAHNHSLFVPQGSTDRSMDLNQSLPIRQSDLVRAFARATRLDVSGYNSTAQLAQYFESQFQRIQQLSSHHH

Cytochrome P450 2D6 = Cytochrome P450 2D6 (Homo sapiens, UniProt P10635);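 also: CYP2D6 member of a cytochrome P450 panel assay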
cells [3] = type: functional, cell-based
cells [4] = type: functional, cell-based; remark: listed apart in the source
[5] = target: T3, Heat shock factor protein 1 (Mus musculus, UniProt P38532); test: enhancement of HSF1-driven luciferase signal – cell-based, NIH3T3, luminescence, dose retest, confirmation (AID 435004); type: functional;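 also: stress induced by proteasome inhibitor MG132 added 30 min after compound; luciferase reporter driven by HSF1 response element in NIH3T3 cells; actives raise luminescence as potentiators of the MG132 stress response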
T3 sequence (P38532 whole entry): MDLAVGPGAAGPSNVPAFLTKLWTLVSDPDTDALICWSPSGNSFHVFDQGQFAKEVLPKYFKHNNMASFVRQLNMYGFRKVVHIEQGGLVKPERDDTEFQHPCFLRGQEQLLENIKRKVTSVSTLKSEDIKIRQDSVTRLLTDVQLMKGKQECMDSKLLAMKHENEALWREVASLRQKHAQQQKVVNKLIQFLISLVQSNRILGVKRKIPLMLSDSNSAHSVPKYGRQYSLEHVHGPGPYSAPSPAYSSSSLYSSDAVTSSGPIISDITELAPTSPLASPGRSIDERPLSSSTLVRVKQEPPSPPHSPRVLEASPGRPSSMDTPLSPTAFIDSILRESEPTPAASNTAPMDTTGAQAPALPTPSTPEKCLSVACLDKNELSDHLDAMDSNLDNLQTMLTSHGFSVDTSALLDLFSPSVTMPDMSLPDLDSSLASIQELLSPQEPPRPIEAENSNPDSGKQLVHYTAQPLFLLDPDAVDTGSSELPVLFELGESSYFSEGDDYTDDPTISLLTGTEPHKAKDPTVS

Streptococcus = test: GAS UMAA2166 growth inhibition – luminescence, BacTiterGlo, counter-screen for streptokinase expression inhibitor project, dose response (AID 1915); type: functional, organism-based;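 also: potency for reduction of bacterial viability or growth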
[6] = system: Streptococcus sp. 'group A'; test: Streptococcus pyogenes SK(-)GAS viability under kanamycin – luminescence, BacTiterGlo, confirmation, counter-screen for streptokinase expression inhibitor project, dose response (AID 1900); type: functional, organism-based
[7] = target: T4, Corticotropin-releasing factor receptor 2/Corticotropin-releasing factor-binding protein (Homo sapiens, UniProt P24387+Q13324); test: activators of CRF receptor 2 with binding protein – uHTS hits, confirmation (AID 602473); type: functional; conditions: read-out: EC50_Mean
T4 sequence (Q13324 whole entry): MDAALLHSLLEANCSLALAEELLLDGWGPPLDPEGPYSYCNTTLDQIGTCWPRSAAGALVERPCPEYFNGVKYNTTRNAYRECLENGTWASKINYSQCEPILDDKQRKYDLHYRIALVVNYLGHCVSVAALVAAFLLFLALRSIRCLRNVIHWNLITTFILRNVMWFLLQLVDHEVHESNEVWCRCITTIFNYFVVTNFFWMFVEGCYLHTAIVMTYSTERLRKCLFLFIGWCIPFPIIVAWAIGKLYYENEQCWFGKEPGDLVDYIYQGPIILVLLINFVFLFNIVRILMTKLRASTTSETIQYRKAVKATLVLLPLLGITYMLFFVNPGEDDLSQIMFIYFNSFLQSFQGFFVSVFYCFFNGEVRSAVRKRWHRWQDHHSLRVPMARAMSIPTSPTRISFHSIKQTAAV
T4 sequence (P24387 whole entry): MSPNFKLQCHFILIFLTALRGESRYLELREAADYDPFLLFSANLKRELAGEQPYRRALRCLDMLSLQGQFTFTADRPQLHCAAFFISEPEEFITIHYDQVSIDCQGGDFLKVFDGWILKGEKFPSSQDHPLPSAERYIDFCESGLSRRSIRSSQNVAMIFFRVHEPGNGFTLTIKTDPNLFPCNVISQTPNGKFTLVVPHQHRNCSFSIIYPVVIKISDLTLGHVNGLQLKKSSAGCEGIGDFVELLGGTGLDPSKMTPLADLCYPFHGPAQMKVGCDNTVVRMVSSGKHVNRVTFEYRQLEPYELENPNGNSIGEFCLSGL

[8] = Luminescence Cell-Based Dose Response HTS to Identify Inhibitors of 5'UTR Stem-Loop Driven Prion Protein mRNA Translation in H4 Neuroglioblastoma Cells. [Related pubchem assays: 1827 (Project Summary), 1813 (Primary HTS)]; type: functional
[9] = luciferase reporter signal suppression in cells – H4 neuroglioma cells, luminescence, dose response (AID 1990); type: functional, cell-based
[10] = alpha-synuclein stem-loop luciferase translation blockers – H4 neuroglioma cells, luminescence, confirmation (AID 1988); type: functional, cell-based
Cytochrome P450 3A4 = Cytochrome P450 3A4 (Homo sapiens, UniProt P08684);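 also: CYP3A4 tested as one member of a cytochrome P450 panel screen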
[11] = Luminescence Cell-Based Dose Retest to Confirm Inhibitors of Cancer Stem Cells. [Related pubchem assays (depositor defined):AID2717, AID2721]; type: functional; conditions: Homo sapiens
Cytochrome P450 1A2 = target: T5, Cytochrome P450 1A2 (Homo sapiens, UniProt P05177);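 also: PubChem cytochrome P450 panel assay, CYP1A2 panel member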
T5 sequence (P05177 whole entry): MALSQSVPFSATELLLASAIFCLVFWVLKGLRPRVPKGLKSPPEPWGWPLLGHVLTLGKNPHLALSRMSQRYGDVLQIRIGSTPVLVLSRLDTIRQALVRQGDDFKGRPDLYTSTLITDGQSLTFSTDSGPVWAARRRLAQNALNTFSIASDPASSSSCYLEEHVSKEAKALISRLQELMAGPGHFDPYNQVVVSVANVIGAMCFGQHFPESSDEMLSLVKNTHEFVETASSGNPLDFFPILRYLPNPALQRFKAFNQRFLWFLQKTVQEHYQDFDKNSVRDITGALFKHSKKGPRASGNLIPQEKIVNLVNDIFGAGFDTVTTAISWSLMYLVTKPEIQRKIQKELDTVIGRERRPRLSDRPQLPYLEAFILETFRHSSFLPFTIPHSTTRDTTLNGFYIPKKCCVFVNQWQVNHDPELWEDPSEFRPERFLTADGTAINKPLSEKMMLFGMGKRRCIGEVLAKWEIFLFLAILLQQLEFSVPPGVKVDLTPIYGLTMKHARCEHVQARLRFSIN

SN12K1 = test: cells; type: functional; conditions: Homo sapiens
P388/ADR = test: cells; type: functional; conditions: Mus musculus

Sequence of Cytochrome P450 3A4 (P08684 whole entry): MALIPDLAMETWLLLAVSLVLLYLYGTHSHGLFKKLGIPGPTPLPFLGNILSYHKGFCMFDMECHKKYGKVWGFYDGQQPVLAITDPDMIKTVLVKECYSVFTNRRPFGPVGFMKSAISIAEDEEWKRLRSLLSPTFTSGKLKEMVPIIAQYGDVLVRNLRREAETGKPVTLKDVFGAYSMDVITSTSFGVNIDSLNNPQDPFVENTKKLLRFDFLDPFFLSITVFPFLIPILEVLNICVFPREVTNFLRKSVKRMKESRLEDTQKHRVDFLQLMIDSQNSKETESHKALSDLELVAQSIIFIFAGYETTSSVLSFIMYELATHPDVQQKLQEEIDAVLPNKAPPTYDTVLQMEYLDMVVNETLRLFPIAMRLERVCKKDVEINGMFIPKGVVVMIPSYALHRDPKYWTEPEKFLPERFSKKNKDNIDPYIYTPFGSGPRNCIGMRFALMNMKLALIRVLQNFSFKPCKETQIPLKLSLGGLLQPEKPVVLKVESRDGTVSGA
Sequence of Cytochrome P450 2D6 (P10635 whole entry): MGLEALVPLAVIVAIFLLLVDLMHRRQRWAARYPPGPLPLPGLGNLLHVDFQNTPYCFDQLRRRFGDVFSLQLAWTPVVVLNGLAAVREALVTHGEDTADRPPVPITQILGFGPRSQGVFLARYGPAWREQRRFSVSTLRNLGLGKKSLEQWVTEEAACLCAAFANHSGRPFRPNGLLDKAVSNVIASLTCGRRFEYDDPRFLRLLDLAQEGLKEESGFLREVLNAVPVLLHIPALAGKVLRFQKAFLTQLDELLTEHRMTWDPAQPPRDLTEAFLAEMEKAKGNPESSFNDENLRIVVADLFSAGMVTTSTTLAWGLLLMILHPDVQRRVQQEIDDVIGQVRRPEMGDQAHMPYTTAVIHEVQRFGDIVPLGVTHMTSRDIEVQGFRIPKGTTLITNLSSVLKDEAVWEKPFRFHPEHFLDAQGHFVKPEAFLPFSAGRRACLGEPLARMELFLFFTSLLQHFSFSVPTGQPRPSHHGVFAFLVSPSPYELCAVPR

CCN1C(=O)/C(=C\c2cccs2)C(C(=O)OC)=C1C
EC50 [1]: > 300 µM (not active)
EC50 [2]: > 300 µM (not active)

N#C[C@H](c1ccccc1)N1CCCN([C@@H](C#N)c2ccccc2)[C@H]1c1ccccc1O
AC50 (Cytochrome P450 2D6): 5.01 µM (inconclusive)

CC(=O)Nc1nc(C)c(-c2csc(Nc3ccccn3)n2)s1
EC50 (cells [3]): 5.87 µM (active)
EC50 (cells [4]): > 350 µM (not active)

COc1ccc(CC(=O)NN=C(S)NCC2CC2)cc1OC
EC50 (cells [3]): > 350 µM (not active)
EC50 (cells [4]): > 350 µM (not active)

N#C/C(=C/c1cccn1-c1cccc(C(=O)O)c1)c1ccc(Cl)cc1
EC50 [1]: > 300 µM (not active)
EC50 [2]: > 300 µM (not active)

COCCn1c(N)c(N(Cc2ccccc2)C(=O)c2ccc(C#N)cc2)c(=O)[nH]c1=O
EC50 [5]: > 260 µM (inactive)

CN1C(=O)/C(=C/c2ccccc2F)Sc2ccc(C(=O)N3CCCC3)cc21
EC50 (Streptococcus): 2.66 µM (active)
EC50 [6]: 1.06 µM (active)

Cc1cc(/C=C2\C(=O)NC(=O)N(c3ccc(Br)cc3)C2=O)c(C)n1-c1cc(C(=O)O)cc(C(=O)O)c1
EC50 [1]: > 300 µM (not active)
EC50 [2]: > 300 µM (not active)

O[C@H](COc1ccccc1)CN1CCCCC1
AC50 (Cytochrome P450 2D6): 5.01 µM (inconclusive)

Cc1ccc(-c2ccc(O)nn2)cc1
EC50 [5]: > 260 µM (inactive)

O=C1NC(=O)N(c2cccc(Cl)c2)C(=O)/C1=C\Nc1ccccn1
EC50 [1]: > 300 µM (not active)
EC50 [2]: > 300 µM (not active)

COc1ccc(C2C(C#N)=C(N)Oc3cc(O)ccc32)cc1C (stereo unspecified)
EC50 [7]: > 53 µM (inactive)

COC(=O)CCCC1=CC2=CC(=O)C(C)(OC(=O)c3ccco3)C(=O)C2=CO1 (stereo unspecified)
EC50 [1]: 22.3 µM (active)
EC50 [2]: 274 µM (inconclusive)

Cc1cc(=O)oc2cc(OCC(=O)N3CCN(c4ccc(F)cc4)CC3)ccc12
EC50 (cells [3]): > 350 µM (not active)
EC50 (cells [4]): > 350 µM (not active)

Cc1ccc(CNC(=O)/C(C#N)=C\c2ccc(N(C)C)cc2)cc1
EC50 [1]: > 300 µM (not active)
EC50 [2]: 43.5 µM (active)

CCOc1ccccc1N1CCN(C(=S)NC(=O)C23CC4CC(CC(C4)C2)C3)CC1
EC50 (cells [3]): > 350 µM (not active)
EC50 [8]: 24.5 µM (active)
EC50 [9]: > 120 µM (not active)
EC50 [10]: 17.3 µM (active)
EC50 (cells [4]): > 350 µM (not active)

Cc1noc(C)c1C(=O)N1CCC2(CCCN(c3ccccc3)C2)CC1
AC50 (Cytochrome P450 2D6): 12.6 µM (inconclusive)
AC50 (Cytochrome P450 3A4): 15.8 µM (inconclusive)

Cc1ccc(C(c2nnnn2C2CCCC2)N2CCc3ccccc32)cc1 (stereo unspecified)
EC50 [5]: > 260 µM (inactive)

CCCC[C@@H]1C[C@H]1C(NC(=O)c1ccco1)c1ccccc1 (stereo partly specified)
AC50 (Cytochrome P450 2D6): 39.8 µM (inconclusive)
AC50 (Cytochrome P450 3A4): 20 µM (inconclusive)

S=C1SCN(C2CCCCCCCCCCC2)CN1C1CCCCCCCCCCC1
AC50 (Cytochrome P450 2D6): 3.16 µM (inconclusive)

CNC(=O)c1c(NC(=O)c2ccc(S(=O)(=O)N3CCCc4ccccc43)cc2)sc2c1CCN(C)C2
EC50 [1]: > 300 µM (not active)
AC50 [11]: 0.206 µM (active)
EC50 [2]: > 300 µM (not active)
EC50 [7]: 6.81 µM (active)

O=C(c1csnn1)N1CCC2(CC1)CCN(c1ncccn1)CC2
AC50 (Cytochrome P450 2D6): 39.8 µM (inconclusive)

CCC/C=C(\CCC)C(NS(C)(=O)=O)c1ccccc1 (stereo unspecified)
AC50 (Cytochrome P450 2D6): 39.8 µM (inconclusive)
AC50 (Cytochrome P450 1A2): 25.1 µM (inconclusive)
AC50 (Cytochrome P450 3A4): 31.6 µM (inconclusive)

S=C(NCc1ccco1)N1CCN(c2ccccc2Cl)CC1
EC50 [5]: > 260 µM (inactive)

CS(=O)(=O)c1cccc(C(=O)N(CCc2ccccc2)Cc2cccs2)c1
EC50 (cells [3]): > 350 µM (not active)
EC50 (cells [4]): > 350 µM (not active)

CC(NC(=O)c1cc2c(s1)CS(=O)(=O)C2)c1ccccc1 (stereo unspecified)
EC50 (cells [3]): > 350 µM (not active)
EC50 (cells [4]): > 350 µM (not active)

C[C@H]1CN(C2CCC(C#N)(c3ccc(F)cc3)CC2)CC[C@@]1(C(=O)O)c1ccccc1 (stereo partly specified)
AC50 (Cytochrome P450 2D6): 10 µM (inconclusive)

CCN1CCCCC(=N/O)/C(=N/O)CCCC1
AC50 (Cytochrome P450 2D6): 1.58 µM (inconclusive)

O=S1(=O)N=C(NCC(c2ccco2)N2CCCCC2)c2ccccc21 (stereo unspecified)
EC50 [5]: > 260 µM (inactive)

C=CCN1C(c2cccc(C(F)(F)F)c2)=CS/C1=C(\C#N)c1nnc(N2CCOCC2)n1-c1ccccc1
EC50 [7]: > 53 µM (inactive)

C/C(=N\OC(=O)c1ccc(F)cc1)c1ccc(F)c(F)c1
EC50 [5]: > 260 µM (inactive)

O=C(CNS(=O)(=O)c1ccc([N+](=O)[O-])cc1)N/N=C\c1ccc(O)cc1
EC50 [7]: 7.12 µM (active)

Cc1ccc(/C=N/N(Cc2ccccc2)c2ccccc2)o1
EC50 [5]: > 260 µM (inactive)

Cc1ccc(/C=N/NC(=O)c2ccc(Br)o2)s1
EC50 (cells [3]): 37.1 µM (active)
EC50 (cells [4]): > 350 µM (not active)

CC[C@@]1(O)C[C@H](OC2CC(N(C)C)C(OC3CC(O)C(OC4CCC(=O)C(C)O4)C(C)O3)C(C)O2)c2c(cc3c(c2O)C(=O)c2c(O)cccc2C3=O)[C@H]1C(=O)OC (stereo partly specified)
GI50 (SN12K1): 0.0236 µM (active)
GI50 (P388/ADR): 0.0333 µM (active)

COc1c2occc2c(OC)c2c(=O)cc(C)oc12 [KHELLIN]
AC50 (Cytochrome P450 2D6): 10 µM (inconclusive)
